According to patent publication EP0075626A1, “Novel rutin nona- and deca(H-)sulfate salts, methods of preparing novel salts, and use of novel salts of complement inhibitors” (AMERICAN CYANAMID COMPANY, priority 1981, dated 1983):

Target: T1, activated complement protein Cl (Homo sapiens, UniProt P09871)
T1 sequence (P09871 16-437 limits assumed): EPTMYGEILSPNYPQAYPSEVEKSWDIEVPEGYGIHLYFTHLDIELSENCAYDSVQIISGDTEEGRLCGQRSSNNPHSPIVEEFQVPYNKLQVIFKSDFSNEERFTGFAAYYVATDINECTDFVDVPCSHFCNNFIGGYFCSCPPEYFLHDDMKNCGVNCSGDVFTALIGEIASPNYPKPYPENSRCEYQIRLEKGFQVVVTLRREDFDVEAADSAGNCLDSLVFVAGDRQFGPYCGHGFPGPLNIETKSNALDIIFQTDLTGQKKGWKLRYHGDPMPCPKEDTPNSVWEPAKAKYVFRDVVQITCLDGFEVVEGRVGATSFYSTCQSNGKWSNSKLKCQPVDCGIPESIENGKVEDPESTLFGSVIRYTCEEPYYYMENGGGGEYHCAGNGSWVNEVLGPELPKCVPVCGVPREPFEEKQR
T1 sequence (P09871 438-688 limits assumed): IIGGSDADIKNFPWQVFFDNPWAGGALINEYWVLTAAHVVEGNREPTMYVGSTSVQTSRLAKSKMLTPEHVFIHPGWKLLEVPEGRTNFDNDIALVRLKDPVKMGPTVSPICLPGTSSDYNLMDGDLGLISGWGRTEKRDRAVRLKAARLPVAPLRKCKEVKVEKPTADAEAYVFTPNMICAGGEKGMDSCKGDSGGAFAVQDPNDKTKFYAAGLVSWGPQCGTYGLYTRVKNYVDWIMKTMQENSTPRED
Assay: Test Code 026 (C 1 inhibitor): protection of fluid phase C2 from activated C1 in the presence of C4, serial dilution assay
Assay type: biochemical
Settings: for times as active as the mixture of hexa- through deca- salts produced by Example 2 of European Application No. 13470A: Test Code 026, worked out from well numbers, two-fold serial dilutions; for In Vitro Activity Test Code 026: activity in wells, two-fold serial dilution assay, the higher the well number the higher the activity
Description: An active inhibitor protects C2 from Cl and C4.
This test measures activity in wells by a serial dilution assay. The higher the well number the higher is the activity. The serial dilutions are two-fold, so that in the test shown above the rutin deca(H-)sulfate sodium salt in accordance with this invention is 16 times as active as the mixture of hexa- through deca- salts produced by Example 2 of European Application No. 13470A, whilst the rutin nona(H-)sulfate sodium salt in accordance with this invention is 8 times as active as the aforesaid mixture.

Substance | times as active as the mixture of hexa- through deca- salts produced by Example 2 of European Application No. 13470A [times] | In Vitro Activity Test Code 026
Rutin nona (H-sulfate) Sodium Salt [Rutin nona(H-)sulfate sodium salt] | 8 | +10
Rutin deca (H-sulfate) Sodium Salt [Rutin deca(H-)sulfate sodium salt] | 16 | +11
